# Measured values published in patent US12291548B2, “Compounds, compositions, and methods for the treatment of disease” (priority 2018, dated 2025).
# Assays:
# mouse STING = biological target: T1, mouse STING (Mus musculus, UniProt Q3TBT3); experiment: RAW macrophage ISRE-inducible Lucia reporter assay; type: cell-based; details: mouse derived RAW macrophages, 20 h incubation, QUANTI-luc, vs DMSO-treated sample
# T1 construct: Mouse derived RAW macrophages stably transfected with an ISRE-inducible Lucia; endogenous in cells; host or cells: Mouse derived RAW macrophages stably transfected with an ISRE-inducible Lucia reporter
# T1 sequence (Q3TBT3 1-378): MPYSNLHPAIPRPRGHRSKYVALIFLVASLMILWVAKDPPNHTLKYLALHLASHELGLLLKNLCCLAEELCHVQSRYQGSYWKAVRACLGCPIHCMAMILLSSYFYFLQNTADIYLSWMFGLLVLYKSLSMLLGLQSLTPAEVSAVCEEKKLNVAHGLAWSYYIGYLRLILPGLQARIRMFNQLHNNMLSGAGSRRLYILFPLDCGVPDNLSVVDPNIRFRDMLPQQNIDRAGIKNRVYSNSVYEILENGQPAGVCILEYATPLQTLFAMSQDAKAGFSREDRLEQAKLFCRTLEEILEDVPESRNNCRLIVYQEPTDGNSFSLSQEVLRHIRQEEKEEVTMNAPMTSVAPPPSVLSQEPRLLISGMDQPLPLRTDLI
# Procedure: (§1) Mouse derived RAW macrophages stably transfected with an ISRE-inducible Lucia were treated with various concentrations of compound 1 or DMSO control. After 20 h incubation, levels of Lucia were measured using QUANTI-luc to measure and ISRE reporter activity. Percent induction was calculated from fold change in activity compared to DMSO-treated sample.
# as §1, with “sample. EC50 values were generated by curve fit in Xlfit.” for “sample.”
# as §1, with “2” for “1”
# Mouse derived RAW macrophages stably transfected with an ISRE-inducible Lucia were treated with various concentrations of compound 2 or DMSO control. After 20 h incubation, levels of Lucia were measured using QUANTI-luc to measure and ISRE reporter activity. […]
# [1] = biological target: T2, HAQ isoform human STING (hSTING) (Homo sapiens, UniProt Q86WV6, G230A/H232R/R293Q/R71H); experiment: THP1 dual reporter assay (ISRE-inducible Lucia, NF-κB inducible SEAP); type: cell-based; details: THP1 cells naturally expressing HAQ hSTING, 20 h incubation, vs DMSO-treated sample; for ISRE (IRF) reporter activity, induction: QUANTI-luc
# T2 construct: THP1 cells naturally expressing HAQ isoform human STING (hSTING); endogenous in cells; host or cells: THP1 cells stably transfected with ISRE-inducible Lucia and NF-κB inducible SEAP reporters
# T2 sequence (Q86WV6 whole entry R71H/G230A/H232R/R293Q, canonical isoform): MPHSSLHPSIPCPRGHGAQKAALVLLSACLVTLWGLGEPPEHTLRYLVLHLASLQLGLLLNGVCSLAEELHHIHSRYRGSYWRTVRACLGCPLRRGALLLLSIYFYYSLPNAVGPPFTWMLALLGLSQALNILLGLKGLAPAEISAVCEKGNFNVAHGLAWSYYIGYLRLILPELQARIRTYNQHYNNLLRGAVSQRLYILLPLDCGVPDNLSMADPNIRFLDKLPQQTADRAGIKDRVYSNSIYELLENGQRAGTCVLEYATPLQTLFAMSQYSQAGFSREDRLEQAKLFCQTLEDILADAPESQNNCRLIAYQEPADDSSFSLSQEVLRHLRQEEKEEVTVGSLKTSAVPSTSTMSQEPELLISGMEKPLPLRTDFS
# Procedure: (§2) THP1 cells naturally expressing HAQ isoform human STING (hSTING), stably transfected with an ISRE-inducible Lucia and NF-κB inducible SEAP were treated with various concentrations of Cmd 1 or DMSO control. After 20 h incubation, levels of Lucia and SEAP were measured using QUANTI-luc and QUANTI-Blue to measure and ISRE and NF-κB reporter activity respectively. Percent induction was calculated from fold change in activity compared to DMSO-treated sample.
# as §2, with “sample. EC50 values were generated by curve fit in Xlfit.” for “sample.”
# as §2, with “Cmd 2” for “Cmd 1”, “reporter activity, respectively, in Xlfit.” for “reporter activity respectively.”
# as §2, with “Cmd 2” for “Cmd 1”, “reporter activity, respectively, in Xlfit.” for “reporter activity respectively.”, “sample. EC50 values were generated by curve fit.” for “sample.”
# STING CTD = STING CTD (Homo sapiens, UniProt Q86WV6); experiment: Thermal shift assay with STING CTD; type: binding; details: 0.1 mg/mL STING CTD, compound 2 mM to 0.05 uM, SYPRO Orange, 25-80° C.
# Sequence of STING CTD (Q86WV6 135-379 limits assumed): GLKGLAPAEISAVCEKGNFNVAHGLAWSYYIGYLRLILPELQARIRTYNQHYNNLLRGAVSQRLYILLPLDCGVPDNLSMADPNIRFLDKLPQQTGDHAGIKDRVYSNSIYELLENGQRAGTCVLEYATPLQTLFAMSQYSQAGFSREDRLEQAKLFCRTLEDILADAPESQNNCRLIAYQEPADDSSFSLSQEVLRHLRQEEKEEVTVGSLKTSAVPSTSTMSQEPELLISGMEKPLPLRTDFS
# Procedure: Thermal shift assay was conducted with 0.1 mg/mL of STING CTD with various dilutions of compound 1 from 2 mM to 0.05 uM in 10 mM HEPES (pH 7.5), 140 mM NaCl and a 5 fold dilution of SYPRO Orange dye (Invitrogen). The fluorescence signal as a function of temperature was recorded using a Real Time PCR machine (Thermo Fisher). The temperature gradient was performed in the range of 25−80° C. with a ramp of 0.2° C. over the course of 60 min. Data were analyzed with the Thermal Shift Software (Thermo Fisher), DSF analysis, and the Derivative model was used to fit the fluorescence data to obtain the midpoint temperature for the thermal protein unfolding transition (Tm) using the curve-fitting software Prism.
Compound,"ISRE (IRF) reporter activity, induction (mouse STING)","NF-κB reporter activity, induction ([1]; QUANTI-Blue (SEAP))","ISRE (IRF) reporter activity, induction [1]","Binding to STING (thermal shift, Tm) (STING CTD)"
CCCCCCCCCCOc1ccc(C(=O)Oc2ccc(CSP3(=O)OC[C@H]4O[C@@H](n5cnc6c(N)ncnc65)[C@H](OP(=O)(O)OC[C@H]5O[C@@H](n6ccc(=O)[nH]c6=O)[C@H](O3)[C@@H]5F)[C@@H]4F)cc2)cc1 (stereo partly drawn) [compound 2],activates mouse STING to induce IRF in RAW macrophages,activates natural allelic variant HAQ to induce IRF and NF-κB,activates natural allelic variant HAQ to induce IRF,–
Nc1ncnc2c1ncn2[C@@H]1O[C@@H]2COP(=O)(S)O[C@@H]3[C@H](F)[C@@H](COP(=O)(O)O[C@@H]1[C@@H]2F)O[C@H]3n1ccc(=O)[nH]c1=O (stereo partly drawn) [compound 1],activates mouse STING to induce IRF in RAW macrophages,–,activates natural allelic variant HAQ to induce IRF,binds to STING with high affinity
